Read-outs that look alike come from different tables or passages of the source.
Experiments:
PI3Kβ = target: T1, PI3Kβ (Homo sapiens, UniProt P42338); assay: kinobeads assay, PI3K beta (dot blot detection); assay type: binding; conditions: Table 4, read-out: Inhibition values (IC50) PI3Kb
T1 construct: endogenous in cells; host or cells: Jurkat cells (ATCC TIB-152) lysate, the only lysate described

PI3K delta (PI3Kd) = target: T2, PI3K delta (PI3Kd) (Homo sapiens, UniProt O00329); assay: kinobeads assay, PI3K delta (dot blot detection); assay type: binding
T2 construct: endogenous in cells; host or cells: Jurkat cells (ATCC TIB-152, clone E6-1), lysate
T2 sequence (O00329 whole entry): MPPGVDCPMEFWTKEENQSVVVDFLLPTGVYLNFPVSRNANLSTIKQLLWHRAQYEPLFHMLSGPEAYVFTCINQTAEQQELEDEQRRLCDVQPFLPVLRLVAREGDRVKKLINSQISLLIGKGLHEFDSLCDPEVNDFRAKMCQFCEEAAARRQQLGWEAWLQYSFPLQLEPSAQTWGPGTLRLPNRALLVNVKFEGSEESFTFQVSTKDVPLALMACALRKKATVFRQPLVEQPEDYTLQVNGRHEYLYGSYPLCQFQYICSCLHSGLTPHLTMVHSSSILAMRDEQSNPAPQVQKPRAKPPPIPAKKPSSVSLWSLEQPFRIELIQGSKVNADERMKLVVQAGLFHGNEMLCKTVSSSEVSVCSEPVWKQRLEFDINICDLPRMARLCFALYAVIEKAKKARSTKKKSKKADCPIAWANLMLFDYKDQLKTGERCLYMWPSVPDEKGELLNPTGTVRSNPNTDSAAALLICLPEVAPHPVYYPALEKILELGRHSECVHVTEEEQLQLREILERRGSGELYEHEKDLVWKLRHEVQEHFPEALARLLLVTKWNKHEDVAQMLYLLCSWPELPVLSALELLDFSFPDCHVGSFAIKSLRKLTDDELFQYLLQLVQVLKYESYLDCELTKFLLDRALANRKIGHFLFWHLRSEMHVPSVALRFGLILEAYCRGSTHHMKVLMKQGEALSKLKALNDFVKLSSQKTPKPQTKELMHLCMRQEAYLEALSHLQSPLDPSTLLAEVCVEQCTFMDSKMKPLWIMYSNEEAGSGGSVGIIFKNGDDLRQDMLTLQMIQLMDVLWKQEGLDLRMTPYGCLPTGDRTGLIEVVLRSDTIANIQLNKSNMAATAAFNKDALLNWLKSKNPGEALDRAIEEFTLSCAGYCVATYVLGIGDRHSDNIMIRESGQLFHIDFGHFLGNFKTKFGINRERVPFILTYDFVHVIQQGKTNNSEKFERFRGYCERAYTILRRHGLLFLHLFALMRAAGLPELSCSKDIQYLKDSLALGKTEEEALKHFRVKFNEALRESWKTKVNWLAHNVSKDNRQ
T2 sequence (P27986 whole entry partner): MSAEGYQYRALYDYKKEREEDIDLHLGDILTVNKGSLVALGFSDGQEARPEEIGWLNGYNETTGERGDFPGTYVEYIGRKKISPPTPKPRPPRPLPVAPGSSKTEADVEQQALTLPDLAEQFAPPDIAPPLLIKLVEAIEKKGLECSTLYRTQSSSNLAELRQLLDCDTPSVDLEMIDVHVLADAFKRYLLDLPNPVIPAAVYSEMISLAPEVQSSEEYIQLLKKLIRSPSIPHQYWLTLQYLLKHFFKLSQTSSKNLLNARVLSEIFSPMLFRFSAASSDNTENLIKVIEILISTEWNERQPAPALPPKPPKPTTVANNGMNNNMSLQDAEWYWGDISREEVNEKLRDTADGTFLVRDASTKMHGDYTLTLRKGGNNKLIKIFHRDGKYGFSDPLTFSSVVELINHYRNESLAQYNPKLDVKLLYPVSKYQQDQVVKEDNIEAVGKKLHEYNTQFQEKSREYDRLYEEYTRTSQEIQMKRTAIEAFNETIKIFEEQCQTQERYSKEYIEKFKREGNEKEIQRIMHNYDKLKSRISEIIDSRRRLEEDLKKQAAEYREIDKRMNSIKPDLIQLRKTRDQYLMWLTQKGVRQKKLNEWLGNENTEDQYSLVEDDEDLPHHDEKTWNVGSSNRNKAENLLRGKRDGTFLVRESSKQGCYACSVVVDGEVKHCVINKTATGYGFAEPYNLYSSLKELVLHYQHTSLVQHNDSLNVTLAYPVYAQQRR
Procedure, shortened: (§1)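 Jurkat cell lysate (5 mg/mL protein) incubated 2 h in the cold with test compound (9-step 1:3 series) and immobilized phenylthiazole/phenylmorpholin-chromen ligand beads. Bead-bound kinases eluted, detected by specific antibody dot blot with infrared readout; IC50 from dose-response curves.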

mTOR = target: T3, mTOR (Homo sapiens, UniProt P42345); assay: mTOR kinobeads assay (dot blot detection); assay type: binding
T3 construct: endogenous in cells; host or cells: Jurkat cells (ATCC TIB-152, clone E6-1), lysate
Procedure, shortened: as §1

[1] = target: T4, DNA-dependent protein kinase (DNA-PK) (Homo sapiens, UniProt P78527); assay: kinobeads assay, DNA-PK (dot blot detection); assay type: binding
T4 construct: endogenous in cells; host or cells: Jurkat cells (ATCC TIB-152, clone E6-1), lysate
Procedure, shortened: as §1

PI3Kγ = target: T5, PI3Kγ (Homo sapiens, UniProt P48736); assay: kinobeads assay, PI3K gamma (dot blot detection); assay type: binding; conditions: Table 4, read-out: Inhibition values (IC50) PI3Kg
T5 construct: endogenous in cells; host or cells: Jurkat cells (ATCC TIB-152) lysate, the only lysate described
T5 sequence (P48736 whole entry): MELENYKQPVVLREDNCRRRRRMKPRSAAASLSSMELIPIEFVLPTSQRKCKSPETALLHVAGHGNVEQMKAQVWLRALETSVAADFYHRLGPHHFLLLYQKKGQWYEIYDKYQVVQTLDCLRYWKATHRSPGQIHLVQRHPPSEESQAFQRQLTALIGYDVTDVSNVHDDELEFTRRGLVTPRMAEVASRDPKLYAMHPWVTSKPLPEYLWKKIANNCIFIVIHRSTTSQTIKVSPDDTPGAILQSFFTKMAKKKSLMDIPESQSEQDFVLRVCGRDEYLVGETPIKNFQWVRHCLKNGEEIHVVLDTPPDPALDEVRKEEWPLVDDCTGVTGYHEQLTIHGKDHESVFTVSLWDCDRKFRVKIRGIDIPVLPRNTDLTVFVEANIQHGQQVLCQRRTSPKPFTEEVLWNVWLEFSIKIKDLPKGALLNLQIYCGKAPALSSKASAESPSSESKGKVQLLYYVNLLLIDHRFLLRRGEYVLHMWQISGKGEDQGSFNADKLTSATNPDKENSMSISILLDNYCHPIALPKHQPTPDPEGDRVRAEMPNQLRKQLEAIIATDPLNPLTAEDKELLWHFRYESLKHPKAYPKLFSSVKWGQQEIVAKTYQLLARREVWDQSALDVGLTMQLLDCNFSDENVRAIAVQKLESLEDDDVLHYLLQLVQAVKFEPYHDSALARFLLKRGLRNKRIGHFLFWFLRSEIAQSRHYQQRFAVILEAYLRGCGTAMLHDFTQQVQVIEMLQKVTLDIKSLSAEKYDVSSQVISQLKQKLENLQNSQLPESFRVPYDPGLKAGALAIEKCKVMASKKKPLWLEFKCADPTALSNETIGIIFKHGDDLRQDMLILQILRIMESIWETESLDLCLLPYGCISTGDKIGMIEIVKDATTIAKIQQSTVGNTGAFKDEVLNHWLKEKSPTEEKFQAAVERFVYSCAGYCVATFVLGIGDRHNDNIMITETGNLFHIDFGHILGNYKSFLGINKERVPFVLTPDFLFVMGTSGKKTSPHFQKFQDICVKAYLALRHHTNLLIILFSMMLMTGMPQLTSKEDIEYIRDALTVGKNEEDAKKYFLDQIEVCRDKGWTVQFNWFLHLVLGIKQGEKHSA

[2] = test system: S6RP serine-240/244 phosphorylation in HEK293T/17 cells; assay: In vitro phospho-S6 cellular assay (pS6RP S240/244); assay type: cell-based; conditions: Homo sapiens, Table 6, 2 hours, S6RP Ser240/244, read-out: pS6 (phospho-S6 cell assay data, activity level)
Excerpt: In Vitro Phospho-S6 and Phospho-Akt Cellular Assay
Activation of mTOR signaling results in phosphorylation of several downstream targets. In cells, mTOR exists in two different protein complexes. The mTOR Complex-1 (mTORC1) phosphorylates and activates S6 Kinase 1 (S6K1) and S6 Kinase 2 (S6K2) (also known as p70S6K) which then phosphorylate S6 Ribosomal Protein (S6RP) (also known as RPS6). S6RP is phosphorylated on serine 235, serine 236, serine 240 and serine 244 by both pS6K1 and pS6K2. The mTOR Complex-2 (mTORC2) phosphorylates AKT on serine 473 which activates the AKT signaling pathway.
The assay measures a test compound's inhibition of S6RP serine-240/244 phosphorylation and inhibition of Akt serine-473 phosphorylation in human embryonic kidney derived HEK293T/17 cells (ATCC CRL-11268).
The HEK293T/17 cell line is maintained in DMEM media (Invitrogen catalogue number 41965-039) supplemented with 10% FCS at 37° C. in a 5% CO2 humidified incubator.
Cells are seeded in 96-well plates at 40,000 cells/well (pS6RP S240/244 assay) or 80,000 cells/well (pAkt 5473 assay) in 90 μl growth media (DMEM, 2% FCS). Plates are incubated for 1 hour in a humidified incubator to allow the cells to adhere. Cells are treated with 8 concentrations of test compounds or DMSO alone for controls (final DMSO concentration 0.1%) and incubated at 37° C. for 2 hours. Then 20 μl of 5× concentrated lysis buffer (750 mM NaCl, 100 mM Tris pH7.4, 5 mM EDTA, 5 mM EGTA, 5% Triton X-100) is added, plates are sealed and incubated for 15 minutes at 4° C. with gentle shaking. After cell lysis, 25 μl cell lysate is transferred to a MesoScale plate coated with an antibody to pS6RP Ser240/244 (MesoScale Discovery K150DGD-3) or an antibody to pAkt Ser 473 (MesoScale Discovery K151DGD-3). Plates have been blocked before by incubation with 150 μl MesoScale Discovery Blocking Solution-A for 1 hour at room temperature followed by washing with 150 μl 1× Tris wash buffer per well. After the transfer of the cell lysate to the MSD plate, the pS6RP (or pAkt) protein is captured on the coated antibody by incubation at room temperature for 1 hour with gentle shaking. After the capture step the plate is washed three times with 150 μl of 1× Tris wash buffer per well. Then 25 μl detection antibody conjugated with a Sulfo-Tag is added and incubated for 1 hour at room temperature with gentle shaking. Subsequently the antibody solution is removed and the plate is washed 3 times with 150 μl 1× Tris wash buffer per well and 150 μl Read buffer is added. The plates are analysed on a MSD 2400 Plate Reader (MesoScale Discovery). Data analysis is performed using nonlinear regression for a sigmoidal dose-response with a variable slope.

PI3Kα = target: T6, PI3Kα (Homo sapiens, UniProt P42336); assay: kinobeads assay, PI3K alpha (dot blot detection); assay type: binding; conditions: Table 4, read-out: Inhibition values (IC50) PI3Ka
T6 construct: endogenous in cells; host or cells: Jurkat cells (ATCC TIB-152) lysate, the only lysate described
T6 sequence (P42336 whole entry): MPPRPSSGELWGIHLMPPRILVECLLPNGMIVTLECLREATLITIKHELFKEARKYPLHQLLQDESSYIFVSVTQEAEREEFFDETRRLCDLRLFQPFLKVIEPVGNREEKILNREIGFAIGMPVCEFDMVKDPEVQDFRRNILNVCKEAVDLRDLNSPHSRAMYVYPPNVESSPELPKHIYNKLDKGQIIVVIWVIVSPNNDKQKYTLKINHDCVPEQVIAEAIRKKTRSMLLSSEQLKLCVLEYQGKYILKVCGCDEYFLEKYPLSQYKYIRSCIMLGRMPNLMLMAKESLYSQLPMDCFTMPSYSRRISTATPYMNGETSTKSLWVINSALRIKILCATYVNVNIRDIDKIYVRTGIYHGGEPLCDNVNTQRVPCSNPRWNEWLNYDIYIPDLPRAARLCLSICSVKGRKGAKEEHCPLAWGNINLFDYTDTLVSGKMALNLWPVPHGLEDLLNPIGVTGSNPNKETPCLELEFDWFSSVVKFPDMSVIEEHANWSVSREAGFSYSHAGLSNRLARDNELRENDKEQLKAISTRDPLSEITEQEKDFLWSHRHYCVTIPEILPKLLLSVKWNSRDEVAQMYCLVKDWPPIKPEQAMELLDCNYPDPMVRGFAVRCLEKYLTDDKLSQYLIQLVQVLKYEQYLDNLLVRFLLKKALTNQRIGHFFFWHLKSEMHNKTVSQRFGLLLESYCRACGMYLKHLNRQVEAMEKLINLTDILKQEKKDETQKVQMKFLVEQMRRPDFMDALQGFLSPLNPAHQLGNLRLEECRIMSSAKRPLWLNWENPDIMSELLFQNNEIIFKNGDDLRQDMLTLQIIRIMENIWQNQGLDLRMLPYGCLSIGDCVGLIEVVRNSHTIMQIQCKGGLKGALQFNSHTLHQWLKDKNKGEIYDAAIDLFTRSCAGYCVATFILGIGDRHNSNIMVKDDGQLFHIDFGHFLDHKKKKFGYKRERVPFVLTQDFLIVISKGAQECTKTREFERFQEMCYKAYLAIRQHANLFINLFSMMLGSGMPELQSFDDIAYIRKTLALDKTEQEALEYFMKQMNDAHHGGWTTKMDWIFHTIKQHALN
T6 sequence (P27986 whole entry partner): as the sequence (P27986 whole entry partner) above

[3] = Table 2, Jurkat cell lysate, read-out: Inhibition values (IC50) PI3Kd
[4] = Table 4, read-out: Inhibition values (IC50) PI3Kd
[5] = Table 2, Jurkat cell lysate, read-out: Inhibition values (IC50) mTor
[6] = Table 4, read-out: Inhibition values (IC50) mTOR
[7] = Table 2, Jurkat cell lysate, read-out: Inhibition values (IC50) DNAPK
[8] = Table 4, read-out: Inhibition values (IC50) DNAPK

T1 sequence (P42338 whole entry): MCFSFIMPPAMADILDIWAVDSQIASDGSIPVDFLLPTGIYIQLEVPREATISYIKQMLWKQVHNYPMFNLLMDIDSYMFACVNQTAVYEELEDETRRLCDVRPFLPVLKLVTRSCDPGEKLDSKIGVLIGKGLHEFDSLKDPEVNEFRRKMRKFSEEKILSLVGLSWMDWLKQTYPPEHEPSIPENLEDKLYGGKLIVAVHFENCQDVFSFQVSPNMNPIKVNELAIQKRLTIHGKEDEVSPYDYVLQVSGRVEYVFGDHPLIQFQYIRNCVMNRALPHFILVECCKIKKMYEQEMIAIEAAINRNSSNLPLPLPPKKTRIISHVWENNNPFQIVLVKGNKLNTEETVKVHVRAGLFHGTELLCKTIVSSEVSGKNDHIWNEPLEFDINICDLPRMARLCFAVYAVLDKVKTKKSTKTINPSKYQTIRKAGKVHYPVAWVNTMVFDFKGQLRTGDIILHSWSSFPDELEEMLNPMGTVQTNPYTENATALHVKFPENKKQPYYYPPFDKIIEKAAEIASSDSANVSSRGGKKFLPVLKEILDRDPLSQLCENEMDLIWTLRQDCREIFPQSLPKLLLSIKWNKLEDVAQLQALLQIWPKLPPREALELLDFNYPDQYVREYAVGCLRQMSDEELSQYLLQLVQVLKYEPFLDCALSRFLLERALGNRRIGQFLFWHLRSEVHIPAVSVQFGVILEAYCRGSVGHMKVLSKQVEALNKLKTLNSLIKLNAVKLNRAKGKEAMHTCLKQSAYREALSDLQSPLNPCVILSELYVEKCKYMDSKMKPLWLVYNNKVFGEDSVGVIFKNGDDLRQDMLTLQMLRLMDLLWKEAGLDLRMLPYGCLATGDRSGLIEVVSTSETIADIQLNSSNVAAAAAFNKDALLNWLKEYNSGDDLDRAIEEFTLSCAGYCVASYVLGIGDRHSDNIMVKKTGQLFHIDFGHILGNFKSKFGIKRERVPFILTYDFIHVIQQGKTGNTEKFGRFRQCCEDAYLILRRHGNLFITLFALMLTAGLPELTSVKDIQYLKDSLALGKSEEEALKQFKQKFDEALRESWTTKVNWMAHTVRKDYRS
T1 sequence (P27986 whole entry partner): as the sequence (P27986 whole entry partner) above

| Structure (SMILES) | IC50 (PI3Kβ) [µM] | IC50 (PI3K delta (PI3Kd); [3]) [µM] | IC50 (PI3K delta (PI3Kd); [4]) [µM] | IC50 (mTOR; [5]) [µM] | IC50 (mTOR; [6]) [µM] | IC50 [1, 7] [µM] | IC50 [1, 8] [µM] | IC50 (PI3Kγ) [µM] | IC50 (PI3Kα) [µM] | IC50 [2] [µM] |
| --- | --- | --- | --- | --- | --- | --- | --- | --- | --- | --- |
| CCNC(=O)Nc1ccc(-c2ccnc(N3CC4CCC(C3)O4)n2)cc1 [Example 56, 1-(4-(2-(8-oxa-3-azabicyclo[3.2.1]octan-3-yl)pyrimidin-4-yl)phenyl)-3-ethylurea] | ≥ 10 | ≥ 10 | ≥ 10 | 1 to 10 | 1 to 10 | ≥ 10 | ≥ 10 | ≥ 10 | ≥ 10 | 0.1 to 1 |
| C[C@H]1COCCN1c1nc(-c2ccc(NC(=O)NC3CC3)cc2)cc(-c2cccnc2)n1 [Example 7, (S)-1-cyclopropyl-3-(4-(2-(3-methylmorpholino)-6-(pyridin-3-yl)pyrimidin-4-yl)phenyl)] | ≥ 10 | ≥ 10 | ≥ 10 | 1 to 10 | 1 to 10 | ≥ 10 | ≥ 10 | ≥ 10 | ≥ 10 | 0.1 to 1 |
| O=C(Nc1ccc(-c2ccnc(N3CCOCC3)n2)cc1)NC1CC1 [Example 28, 1-cyclopropyl-3-(4-(2-morpholinopyrimidin-4-yl)phenyl)urea] | ≥ 10 | ≥ 10 | ≥ 10 | 1 to 10 | 1 to 10 | ≥ 10 | ≥ 10 | ≥ 10 | ≥ 10 | 1 to 10 |
| O=C(Nc1ccc(-c2nccc(N3CC4CCC(C3)O4)n2)cc1)NC1CC1 [Example 48, 1-(4-(4-(8-oxa-3-azabicyclo[3.2.1]octan-3-yl)pyrimidin-2-yl)phenyl)-3-cyclopropylurea] | ≥ 10 | ≥ 10 | ≥ 10 | 0.1 to 1 | 0.1 to 1 | 1 to 10 | 1 to 10 | ≥ 10 | ≥ 10 | 0.1 to 1 |
| CCNC(=O)Nc1ccc(-c2nccc(N3CC4CCC(C3)O4)n2)cc1 [Example 49, 1-(4-(4-(8-oxa-3-azabicyclo[3.2.1]octan-3-yl)pyrimidin-2-yl)phenyl)-3-ethylurea] | ≥ 10 | ≥ 10 | ≥ 10 | 0.1 to 1 | 0.1 to 1 | 1 to 10 | 1 to 10 | ≥ 10 | ≥ 10 | 0.1 to 1 |
| C[C@H]1COCCN1c1nc(-c2ccc(NC(=O)NC3CC3)cc2)cc(-c2ccccc2S(=O)(=O)N2CCCC2)n1 [Example 88, (S)-1-cyclopropyl-3-(4-(2-(3-methylmorpholino)-6-(2-(pyrrolidin-1-ylsulfonyl)phenyl)pyrimidin-4-yl)phenyl)urea] | ≥ 10 | – | ≥ 10 | – | 1 to 10 | – | ≥ 10 | ≥ 10 | ≥ 10 | < 0.1 |
| C[C@H]1COCCN1c1ccnc(-c2ccc(NC(=O)NCC(F)F)cc2)n1 [Example 54, (S)-1-(2,2-difluoroethyl)-3-(4-(4-(3-methylmorpholino)pyrimidin-2-yl)phenyl)urea] | ≥ 10 | ≥ 10 | ≥ 10 | 0.1 to 1 | 0.1 to 1 | ≥ 10 | ≥ 10 | ≥ 10 | ≥ 10 | 0.1 to 1 |
| C[C@H]1COCCN1c1cc(-c2cncc(F)c2)nc(-c2ccc(NC(=O)NC3CC3)cc2F)n1 [Example 63, (S)-1-cyclopropyl-3-(3-fluoro-4-(4-(5-fluoropyridin-3-yl)-6-(3-methylmorpholino)pyrimidin-2-yl)phenyl)urea] | ≥ 10 | ≥ 10 | ≥ 10 | 1 to 10 | 1 to 10 | ≥ 10 | ≥ 10 | ≥ 10 | ≥ 10 | 0.1 to 1 |

Continued, in another order:

| IC50 (PI3Kβ) [µM] | IC50 (PI3K delta (PI3Kd); [3]) [µM] | IC50 (PI3K delta (PI3Kd); [4]) [µM] | IC50 (mTOR; [5]) [µM] | IC50 (mTOR; [6]) [µM] | IC50 [1, 7] [µM] | IC50 [1, 8] [µM] | IC50 (PI3Kγ) [µM] | IC50 (PI3Kα) [µM] | Structure (SMILES) | IC50 [2] [µM] |
| --- | --- | --- | --- | --- | --- | --- | --- | --- | --- | --- |
| ≥ 10 | – | ≥ 10 | – | 0.1 to 1 | – | ≥ 10 | ≥ 10 | ≥ 10 | C[C@H](CO)NC(=O)Nc1ccc(-c2cc(-c3cc(F)ccc3S(C)(=O)=O)nc(N3CCOC[C@@H]3C)n2)cc1 [Example 73, 1-(4-(6-(5-fluoro-2-(methylsulfonyl)phenyl)-2-((S)-3-methylmorpholino)pyrimidin-4-yl)phenyl)-3-((R)-1-hydroxypropan-2-yl)urea] | < 0.1 |
| ≥ 10 | – | ≥ 10 | – | 0.1 to 1 | – | ≥ 10 | ≥ 10 | ≥ 10 | C[C@H](O)CNC(=O)Nc1ccc(-c2cc(-c3cc(F)ccc3S(C)(=O)=O)nc(N3CCOC[C@@H]3C)n2)cc1 [Example 83, 1-(4-(6-(5-fluoro-2-(methylsulfonyl)phenyl)-2-((S)-3-methylmorpholino)pyrimidin-4-yl)phenyl)-3-((S)-2-hydroxypropyl)urea] | < 0.1 |
| ≥ 10 | – | ≥ 10 | – | < 0.1 | – | ≥ 10 | ≥ 10 | ≥ 10 | C[C@H]1COCCN1c1cc(-c2ccccc2S(C)(=O)=O)nc(-c2ccc(NC(=O)NCCO)cc2)n1 [Example 80, (S)-1-(2-hydroxyethyl)-3-(4-(4-(3-methylmorpholino)-6-(2-(methylsulfonyl)phenyl)pyrimidin-2-yl)phenyl)urea] | < 0.1 |
| ≥ 10 | – | ≥ 10 | – | 0.1 to 1 | – | ≥ 10 | ≥ 10 | ≥ 10 | C[C@H]1COCCN1c1nc(-c2ccc(NC(=O)NC3(CO)CCC3)cc2)cc(-c2cc(F)ccc2S(C)(=O)=O)n1 [Example 75, (S)-1-(4-(6-(5-fluoro-2-(methylsulfonyl)phenyl)-2-(3-methylmorpholino)pyrimidin-4-yl)phenyl)-3-(1-(hydroxymethyl)cyclobutyl)urea] | 0.1 to 1 |
| ≥ 10 | ≥ 10 | ≥ 10 | 1 to 10 | 1 to 10 | ≥ 10 | ≥ 10 | ≥ 10 | ≥ 10 | C[C@H]1COCCN1c1nc(-c2ccc(NC(=O)NCC(N)=O)cc2)cc(-c2cc(F)ccc2S(C)(=O)=O)n1 [Example 70, (S)-2-(3-(4-(6-(5-fluoro-2-(methylsulfonyl)phenyl)-2-(3-methylmorpholino)pyrimidin-4-yl)phenyl)ureido)acetamide] | 0.1 to 1 |
| ≥ 10 | ≥ 10 | ≥ 10 | 0.1 to 1 | 0.1 to 1 | ≥ 10 | ≥ 10 | ≥ 10 | ≥ 10 | CCNC(=O)Nc1ccc(-c2cc(-c3ccccc3S(=O)(=O)N(C)C)nc(N3CCOC[C@@H]3C)n2)cc1 [Example 14, (S)-2-(6-(4-(3-ethylureido)phenyl)-2-(3-methylmorpholino)pyrimidin-4-yl)-N,N-dimethylbenzenesulfonamide] | 0.1 to 1 |

Source: patent publication US9249129B2, “Morpholino substituted urea derivatives as mTOR inhibitors” (CELLZOME LIMITED, priority 2010, dated 2016)
